Reference: patent US7276523B2, “Aminopyridine derivatives as estrogen receptor modulators” (SmithKline Beecham Corporation, priority 2001, dated 2007)

Tests used:
[1] = biological target: T1, GST-hERα (ligand binding domain) (Homo sapiens, UniProt P03372); assay: Competition binding assay (SPA, [3H]estradiol), ER alpha; conditions: read-out: Avg. ER alpha Ki (n)
T1 construct: made in house; host or cells: E. coli BL21(DE3)pLysS
T1 sequence (P03372 311-547 limits assumed): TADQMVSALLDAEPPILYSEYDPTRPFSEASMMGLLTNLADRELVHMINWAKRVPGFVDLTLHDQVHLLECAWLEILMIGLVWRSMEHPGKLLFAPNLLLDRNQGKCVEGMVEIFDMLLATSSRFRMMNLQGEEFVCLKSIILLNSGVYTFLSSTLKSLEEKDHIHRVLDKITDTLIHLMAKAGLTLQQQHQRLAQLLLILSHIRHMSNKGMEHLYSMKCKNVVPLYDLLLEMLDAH
Description: The ligand binding domain of both ERα and ERβ were subcloned into pGEX-2T vector, which had been modified to contain KpnI and BamHI restriction, sites in the multiple cloning region. GST-hERα and GST-hERβ proteins were made by transforming BL21(DE3)pLYS S competent cells with the appropriate expression plasmid. […] The cells were collected by centrifugation and resuspended in lysis buffer (50 mM Tris pH 7.9; 250 mM KCl; 1% Triton X-100; 10 mM DTT; 1 mM PMSF). The lysate was then placed on dry ice until completely frozen. The frozen lysate was thawed and centrifuged 20 min at 4° C. at 80 K rpm in a TLA 100.2 rotor in a Beckman TL-100 ultracentrifuge. The supernatant was retained and glycerol was added to a final concentration of 10%. The protein content of the supernatant was quantitated using the BioRad Protein Assay Reagent. The protein was then stored at −80° C. until used in the binding assay.
Polylysine coated Yttrium Silicate SPA beads (Amersham #RPNQ 0010) was resuspended in assay buffer [10 mM potassium phosphate buffer pH 7.0 containing 2 mM EDTA, 50 mM NaCl, 1 mM DTT, 2 mM CHAPS, 10% glycerol] to a concentration of 1 g/60 ml. 30 ul (0.5 mg) of the SPA beads was then added to each well of a Packard OptiPlate (Packard 6005190, Packard Instruments, Meriden, Conn.). […] The plates were shaken vigorously for two hours then counted on a Packard TopCount using the protocol for counting tritium yttrium silicate SPA beads. Data analysis was done by standard methods. % Bound was calculated for each concentration of each test compound using the equation % Bound=100*((Test−NS)/(T−NS)). % Bound was plotted vs concentration and curve fitting was accomplished using non-linear regression.
Saturation binding assays were run similarly to competition assays.

[2] = biological target: T2, GST-hERβ (ligand binding domain) (Homo sapiens, UniProt Q92731); assay: Competition binding assay (SPA, [3H]estradiol), ER beta
T2 construct: made in house; host or cells: E. coli BL21(DE3)pLysS
Description: The ligand binding domain of both ERα and ERβ were subcloned into pGEX-2T vector, which had been modified to contain KpnI and BamHI restriction, sites in the multiple cloning region. GST-hERα and GST-hERβ proteins were made by transforming BL21(DE3)pLYS S competent cells with the appropriate expression plasmid. Liquid cultures containing standard Luria-Bertani (LB) broth with 0.1 mg/ml ampicillin and 0.033 mg/ml chloramphenicol were grown at 37° C. to an OD600 of 0.5-1.0 then induced with IPTG for 2-3 hours. The cells were collected by centrifugation and resuspended in lysis buffer (50 mM Tris pH 7.9; 250 mM KCl; 1% Triton X-100; 10 mM DTT; 1 mM PMSF). The lysate was then placed on dry ice until completely frozen. The frozen lysate was thawed and centrifuged 20 min at 4° C. at 80 K rpm in a TLA 100.2 rotor in a Beckman TL-100 ultracentrifuge. The supernatant was retained and glycerol was added to a final concentration of 10%. The protein content of the supernatant was quantitated using the BioRad Protein Assay Reagent. The protein was then stored at −80° C. until used in the binding assay.
Polylysine coated Yttrium Silicate SPA beads (Amersham #RPNQ 0010) was resuspended in assay buffer [10 mM potassium phosphate buffer pH 7.0 containing 2 mM EDTA, 50 mM NaCl, 1 mM DTT, 2 mM CHAPS, 10% glycerol] to a concentration of 1 g/60 ml. 30 ul (0.5 mg) of the SPA beads was then added to each well of a Packard OptiPlate (Packard 6005190, Packard Instruments, Meriden, Conn.). […] [2, 4, 6, 7, 16, 17-3H(N)]-Estradiol was added as a 30 ul aliquot to give a final assay concentration of 1 nM. To give a final volume of 100 ul, either 10 ul of a test compound solution (typically in 10% DMSO as solvent), solvent containing no test compound (to determine total binding, T), or solvent containing 17-b-estradiol at 100 uM (to determine non-specific binding, NS) were finally added to the plate. The plates were shaken vigorously for two hours then counted on a Packard TopCount using the protocol for counting tritium yttrium silicate SPA beads. Data analysis was done by standard methods. % Bound was calculated for each concentration of each test compound using the equation % Bound=100*((Test−NS)/(T−NS)). % Bound was plotted vs concentration and curve fitting was accomplished using non-linear regression.
Saturation binding assays were run similarly to competition assays. […] [2, 4, 6, 7, 16, 17-3H(N)]-Estradiol was added such that the final concentration ranged from 0.1 to 100 nM.

T2 sequence (Q92731 264-498 limits assumed): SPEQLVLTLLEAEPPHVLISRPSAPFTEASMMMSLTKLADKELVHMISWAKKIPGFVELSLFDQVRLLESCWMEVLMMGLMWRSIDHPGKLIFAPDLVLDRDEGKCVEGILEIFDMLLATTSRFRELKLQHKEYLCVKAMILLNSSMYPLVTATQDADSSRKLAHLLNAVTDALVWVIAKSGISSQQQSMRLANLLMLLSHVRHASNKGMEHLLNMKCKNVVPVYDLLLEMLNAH

SMILES	Ki [1]	Ki [2]
Cc1cc(O)ccc1-c1cc(-c2ccccc2)cc(N(C)CCc2ccccc2)n1 [Example 6, 3-methyl-4-{6-[methyl(2-phenylethyl)amino]-4-phenyl-2-pyridinyl}phenol]	160 nM	680 nM
Cc1cc(O)ccc1-c1cc(-c2ccccc2)cc(N2CCC(Cc3ccccc3)CC2)n1 [Example 29, 4-[6-(4-benzyl-1-piperidinyl)-4-phenyl-2-pyridinyl]-3-methylphenol]	20 nM	110 nM
Cc1cc(O)ccc1-c1cc(-c2ccccc2)cc(N(CCc2ccccc2)Cc2ccccc2)n1 [Example 31, 4-{6-[benzyl(2-phenylethyl)amino]-4-phenyl-2-pyridinyl}-3-methylphenol]	130 nM	250 nM
CCCCN(C)c1cc(-c2ccccc2)cc(-c2cccc(O)c2)n1 [Example 12, 3-{6-[butyl(methyl)amino]-4-phenyl-2-pyridinyl}phenol]	660 nM	790 nM
CCOCCN(CCOCC)c1cc(-c2ccccc2)cc(-c2ccc(O)cc2C)n1 [Example 32, 4-{6-[bis(2-ethoxyethyl)amino]-4-phenyl-2-pyridinyl}-3-methylphenol]	2000 nM	1170 nM
Cc1cc(O)ccc1-c1cc(-c2ccccc2)cc(N(C)CCc2ccccn2)n1 [Example 23, 3-methyl-4-(6-{methyl[2-(2-pyridinyl)ethyl]amino}-4-phenyl-2-pyridinyl)phenol]	1260 nM	> 3000 nM
Cc1cc(O)ccc1-c1cc(-c2ccccc2)cc(N(C)Cc2ccccc2)n1 [Example 15, 4-{6-[benzyl(methyl)amino]-4-phenyl-2-pyridinyl}-3-methylphenol]	380 nM	1120 nM
Cc1cc(O)ccc1-c1cc(-c2ccccc2)cc(N(C)CCC(C)C)n1 [Example 21, 4-{6-[isopentyl(methyl)amino]-4-phenyl-2-pyridinyl}-3-methylphenol]	210 nM	660 nM
CCN(Cc1ccncc1)c1cc(-c2ccccc2)cc(-c2ccc(O)cc2C)n1 [Example 28, 4-{6-[ethyl(4-pyridinylmethyl)amino]-4-phenyl-2-pyridinyl}-3-methylphenol]	830 nM	1000 nM
Cc1cc(O)ccc1-c1cc(-c2ccccc2)cc(N(C)Cc2cccc3ccccc23)n1 [Example 18, 3-methyl-4-{6-[methyl(1-naphthylmethyl)amino]-4-phenyl-2-pyridinyl}phenol]	450 nM	1410 nM
CC(C)CCN(C)c1cc(-c2ccccc2)cc(-c2ccc(O)cc2)n1 [Example 20, 4-{6-[isopentyl(methyl)amino]-4-phenyl-2-pyridinyl}phenol]	620 nM	1260 nM
CCCN(Cc1ccccn1)c1cc(-c2ccccc2)cc(-c2ccc(O)cc2C)n1 [Example 26, 3-methyl-4-{4-phenyl-6-[propyl(2-pyridinylmethyl)amino]-2-pyridinyl}phenol]	70 nM	330 nM
